{"source": "ChEMBL document CHEMBL4196089", "about": "“Design, synthesis, biological evaluation and in vivo testing of dual phosphodiesterase 5 (PDE5) and histone deacetylase 6 (HDAC6)-selective inhibitors for the treatment of Alzheimer's disease” (Eur J Med Chem, 2018)", "key": {"[1]": {"biological_target": "T1, Histone deacetylase 1 (Homo sapiens, UniProt Q13547)", "T1 sequence (Q13547 whole entry)": "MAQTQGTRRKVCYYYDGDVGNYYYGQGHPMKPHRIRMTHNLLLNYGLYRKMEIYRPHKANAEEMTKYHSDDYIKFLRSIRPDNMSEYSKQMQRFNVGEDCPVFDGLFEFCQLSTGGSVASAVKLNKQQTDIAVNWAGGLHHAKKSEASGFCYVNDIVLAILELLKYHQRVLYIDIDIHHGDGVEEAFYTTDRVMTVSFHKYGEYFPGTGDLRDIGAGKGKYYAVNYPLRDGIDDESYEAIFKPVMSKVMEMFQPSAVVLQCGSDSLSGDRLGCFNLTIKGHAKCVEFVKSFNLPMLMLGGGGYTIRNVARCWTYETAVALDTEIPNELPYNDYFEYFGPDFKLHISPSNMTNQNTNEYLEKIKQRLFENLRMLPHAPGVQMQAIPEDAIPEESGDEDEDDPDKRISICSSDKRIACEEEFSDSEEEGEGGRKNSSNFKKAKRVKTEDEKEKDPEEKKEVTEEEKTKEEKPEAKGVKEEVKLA", "assay": "Inhibition of full length human recombinant C-terminal FLAG/His-tagged HDAC1 expressed in baculovirus infected sf9 cells using fluorogenic HDAC substrate 3 after 4 hrs fluorescence assay"}, "[2]": {"biological_target": "Protein deacetylase HDAC6 (Mus musculus) (UniProt Q9Z2V5)", "sequence (Q9Z2V5 whole entry)": "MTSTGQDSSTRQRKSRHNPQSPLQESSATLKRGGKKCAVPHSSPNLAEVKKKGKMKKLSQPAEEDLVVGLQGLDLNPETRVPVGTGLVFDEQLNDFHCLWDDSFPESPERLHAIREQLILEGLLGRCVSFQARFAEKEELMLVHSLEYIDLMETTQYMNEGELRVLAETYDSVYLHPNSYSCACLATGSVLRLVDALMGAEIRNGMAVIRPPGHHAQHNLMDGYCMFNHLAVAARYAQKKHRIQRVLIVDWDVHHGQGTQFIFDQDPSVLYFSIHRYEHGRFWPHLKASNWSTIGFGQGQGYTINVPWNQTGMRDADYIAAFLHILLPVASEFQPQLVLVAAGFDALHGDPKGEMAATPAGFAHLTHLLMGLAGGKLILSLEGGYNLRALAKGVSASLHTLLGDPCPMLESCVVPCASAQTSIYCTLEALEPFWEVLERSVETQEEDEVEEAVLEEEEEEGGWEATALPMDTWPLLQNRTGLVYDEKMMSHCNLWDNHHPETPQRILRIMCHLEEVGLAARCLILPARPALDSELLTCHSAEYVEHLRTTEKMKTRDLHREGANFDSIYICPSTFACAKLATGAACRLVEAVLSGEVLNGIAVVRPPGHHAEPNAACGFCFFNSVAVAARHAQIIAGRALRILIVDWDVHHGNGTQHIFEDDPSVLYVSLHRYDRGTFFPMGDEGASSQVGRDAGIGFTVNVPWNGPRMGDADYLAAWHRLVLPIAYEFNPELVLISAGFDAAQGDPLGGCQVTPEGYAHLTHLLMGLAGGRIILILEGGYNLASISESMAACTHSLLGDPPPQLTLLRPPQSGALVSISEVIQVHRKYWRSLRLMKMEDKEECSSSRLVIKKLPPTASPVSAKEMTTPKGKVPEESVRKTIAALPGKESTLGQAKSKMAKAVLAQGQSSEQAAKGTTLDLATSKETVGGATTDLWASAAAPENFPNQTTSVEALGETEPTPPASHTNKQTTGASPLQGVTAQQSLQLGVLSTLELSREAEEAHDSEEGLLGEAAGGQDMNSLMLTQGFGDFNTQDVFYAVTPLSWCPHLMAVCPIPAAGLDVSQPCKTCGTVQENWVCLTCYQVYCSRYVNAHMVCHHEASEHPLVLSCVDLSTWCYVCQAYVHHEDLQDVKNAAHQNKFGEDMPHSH", "assay": "Inhibition of HDAC6 in Tg2576 mouse primary neurons assessed as reduction in human APP protein level at 100 nM treated for 2 days measured at 24 hrs post last dose by Western blot analysis relative to control"}, "[3]": {"biological_target": "T1, Histone deacetylase 1", "assay": "Inhibition of full length human recombinant C-terminal FLAG/His-tagged HDAC1 expressed in baculovirus infected sf9 cells using fluorogenic HDAC substrate 3 after 30 mins by fluorescence assay"}, "[4]": {"assay": "cells", "details": "Homo sapiens, SH-SY5Y, 2 h, read-out: FC; call rule not given here"}, "[5]": {"biological_target": "T2, Protein deacetylase HDAC6 (Homo sapiens, UniProt Q9UBN7)", "T2 sequence (Q9UBN7 whole entry)": "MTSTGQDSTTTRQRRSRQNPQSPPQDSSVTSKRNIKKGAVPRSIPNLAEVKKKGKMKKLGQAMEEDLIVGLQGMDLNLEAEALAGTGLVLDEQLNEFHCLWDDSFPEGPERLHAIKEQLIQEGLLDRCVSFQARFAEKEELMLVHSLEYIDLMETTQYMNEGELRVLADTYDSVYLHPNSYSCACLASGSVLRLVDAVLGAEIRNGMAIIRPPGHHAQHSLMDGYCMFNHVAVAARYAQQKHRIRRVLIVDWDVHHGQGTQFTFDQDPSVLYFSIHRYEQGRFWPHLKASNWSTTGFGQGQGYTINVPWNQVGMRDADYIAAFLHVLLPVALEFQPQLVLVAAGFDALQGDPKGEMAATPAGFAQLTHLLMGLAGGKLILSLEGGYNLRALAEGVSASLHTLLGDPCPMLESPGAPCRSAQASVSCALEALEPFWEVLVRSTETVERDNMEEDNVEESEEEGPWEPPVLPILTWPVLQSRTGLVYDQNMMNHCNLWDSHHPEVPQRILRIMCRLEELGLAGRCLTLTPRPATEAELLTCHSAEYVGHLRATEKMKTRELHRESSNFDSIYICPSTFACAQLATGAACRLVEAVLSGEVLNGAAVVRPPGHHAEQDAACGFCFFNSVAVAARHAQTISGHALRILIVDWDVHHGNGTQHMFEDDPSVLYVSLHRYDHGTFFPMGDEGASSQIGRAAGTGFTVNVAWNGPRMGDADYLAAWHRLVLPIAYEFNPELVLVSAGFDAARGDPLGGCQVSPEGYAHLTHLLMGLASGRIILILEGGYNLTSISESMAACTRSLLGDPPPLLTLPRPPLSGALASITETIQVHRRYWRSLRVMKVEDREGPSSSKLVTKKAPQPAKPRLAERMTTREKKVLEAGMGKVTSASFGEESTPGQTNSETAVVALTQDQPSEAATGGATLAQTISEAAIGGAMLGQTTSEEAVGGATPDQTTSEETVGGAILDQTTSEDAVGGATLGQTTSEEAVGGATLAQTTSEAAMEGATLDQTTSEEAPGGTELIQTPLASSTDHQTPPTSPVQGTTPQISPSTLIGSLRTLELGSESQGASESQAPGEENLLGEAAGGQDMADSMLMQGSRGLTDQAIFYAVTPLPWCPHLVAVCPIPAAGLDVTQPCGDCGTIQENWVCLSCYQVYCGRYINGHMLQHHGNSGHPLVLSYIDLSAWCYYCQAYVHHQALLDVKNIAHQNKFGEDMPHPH", "assay": "Inhibition of full length human recombinant N-terminal GST-tagged HDAC6 expressed in baculovirus infected sf9 cells using fluorogenic HDAC substrate 3 after 30 mins by fluorescence assay"}, "[6]": {"system": "Mus musculus", "assay": "Cognitive enhancing effect in Tg2576 mouse model of Alzheimer's disease assessed as long term associative memory improvement by measuring freezing after electric shock at 40 mg/kg, ip for 2 weeks measured at 24 hrs post electric shock (reference value: 54%)", "assay_type": "functional"}, "[7]": {"biological_target": "Histone deacetylase 8 (Homo sapiens, UniProt Q9BY41)", "sequence (Q9BY41 whole entry)": "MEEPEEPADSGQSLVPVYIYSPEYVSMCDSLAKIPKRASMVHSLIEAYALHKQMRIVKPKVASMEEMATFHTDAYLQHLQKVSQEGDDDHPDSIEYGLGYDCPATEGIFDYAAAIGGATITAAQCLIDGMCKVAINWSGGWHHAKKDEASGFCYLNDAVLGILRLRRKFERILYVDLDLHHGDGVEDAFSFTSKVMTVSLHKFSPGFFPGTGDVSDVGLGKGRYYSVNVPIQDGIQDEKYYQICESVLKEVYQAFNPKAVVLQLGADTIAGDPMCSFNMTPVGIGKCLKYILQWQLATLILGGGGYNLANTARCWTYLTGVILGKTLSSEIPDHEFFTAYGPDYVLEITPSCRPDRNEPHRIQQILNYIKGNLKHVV", "assay": "Inhibition of human HDAC8"}, "[8]": {"biological_target": "Cone cGMP-specific 3',5'-cyclic phosphodiesterase subunit alpha' (Homo sapiens, UniProt P51160)", "sequence (P51160 whole entry)": "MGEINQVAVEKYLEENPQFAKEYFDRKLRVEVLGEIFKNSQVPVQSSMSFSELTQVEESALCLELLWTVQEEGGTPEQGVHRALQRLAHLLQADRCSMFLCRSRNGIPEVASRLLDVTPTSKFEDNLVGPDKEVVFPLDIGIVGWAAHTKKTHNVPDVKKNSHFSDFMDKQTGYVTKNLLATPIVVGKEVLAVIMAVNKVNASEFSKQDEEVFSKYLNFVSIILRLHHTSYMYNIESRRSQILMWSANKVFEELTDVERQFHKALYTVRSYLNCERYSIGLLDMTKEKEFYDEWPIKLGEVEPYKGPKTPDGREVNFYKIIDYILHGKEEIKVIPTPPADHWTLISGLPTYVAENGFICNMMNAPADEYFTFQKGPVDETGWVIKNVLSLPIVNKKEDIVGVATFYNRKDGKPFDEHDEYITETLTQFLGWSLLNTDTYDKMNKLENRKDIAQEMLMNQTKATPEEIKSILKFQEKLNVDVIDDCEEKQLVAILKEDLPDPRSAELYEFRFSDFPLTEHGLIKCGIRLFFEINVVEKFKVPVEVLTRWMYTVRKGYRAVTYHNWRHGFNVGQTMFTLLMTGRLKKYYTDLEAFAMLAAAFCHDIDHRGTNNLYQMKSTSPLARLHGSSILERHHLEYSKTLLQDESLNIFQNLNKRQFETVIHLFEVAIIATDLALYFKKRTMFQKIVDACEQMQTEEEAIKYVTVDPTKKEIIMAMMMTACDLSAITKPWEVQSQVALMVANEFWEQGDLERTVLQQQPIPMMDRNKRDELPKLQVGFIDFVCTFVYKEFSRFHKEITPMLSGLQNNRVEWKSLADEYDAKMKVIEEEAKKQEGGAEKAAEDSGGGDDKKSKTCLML", "assay": "Inhibition of PDE6C (unknown origin) using FAM-cGMP as substrate by fluorescence assay"}, "[9]": {"assay": "cells", "details": "Homo sapiens, SH-SY5Y, 2 h, read-out: FC", "remark": "listed apart in the source"}, "[10]": {"assay": "Cytotoxicity against human THLE2 cells after 72 hrs by vialight cell proliferation assay", "assay_type": "cell-based, THLE-2", "details": "read-out: LC50"}, "[11]": {"system": "Mus musculus", "assay": "In vivo inhibition of PDE5 in mouse assessed as increase in pCREB-Ser133 level in hippocampus at 40 mg/kg, ip measured after 1 hr by Western blot analysis", "assay_type": "functional", "set-up": "scale not given: the % may be the effect or the level left"}, "[12]": {"biological_target": "CYP1A2 (Homo sapiens, UniProt P05177)", "assay": "Inhibition of CYP1A2 in human liver microsomes at 10 uM after 10 mins in presence of NADPH by LC-MS/MS analysis relative to control", "assay_type": "ADME"}, "[13]": {"assay": "Half life in mouse liver microsomes at 1 uM preincubated for 10 mins followed by NADPH addition measured up to 60 mins by LC-MS/MS analysis", "assay_type": "ADME, microsome"}, "[14]": {"biological_target": "CYP2C9 (Homo sapiens, UniProt P11712)", "assay": "Inhibition of CYP2C9 in human liver microsomes at 10 uM after 10 mins in presence of NADPH by LC-MS/MS analysis relative to control", "assay_type": "ADME"}, "[15]": {"biological_target": "CYP2D6 (Homo sapiens, UniProt P10635)", "sequence (P10635 whole entry)": "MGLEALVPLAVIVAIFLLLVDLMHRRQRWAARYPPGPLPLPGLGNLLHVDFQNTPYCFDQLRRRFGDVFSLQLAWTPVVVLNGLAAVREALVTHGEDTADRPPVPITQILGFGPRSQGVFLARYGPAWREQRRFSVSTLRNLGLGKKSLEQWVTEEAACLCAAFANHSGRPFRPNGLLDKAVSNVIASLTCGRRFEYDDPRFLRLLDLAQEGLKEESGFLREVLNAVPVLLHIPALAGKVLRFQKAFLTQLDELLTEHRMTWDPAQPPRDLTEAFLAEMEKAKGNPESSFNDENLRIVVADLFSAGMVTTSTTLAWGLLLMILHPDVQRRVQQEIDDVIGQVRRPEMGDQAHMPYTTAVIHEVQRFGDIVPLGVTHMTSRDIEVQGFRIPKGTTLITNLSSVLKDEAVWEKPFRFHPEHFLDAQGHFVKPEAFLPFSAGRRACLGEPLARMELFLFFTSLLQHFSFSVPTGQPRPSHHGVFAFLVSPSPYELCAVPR", "assay": "Inhibition of CYP2D6 in human liver microsomes at 10 uM after 10 mins in presence of NADPH by LC-MS/MS analysis relative to control", "assay_type": "ADME"}, "[16]": {"biological_target": "cGMP-specific 3',5'-cyclic phosphodiesterase (Homo sapiens, UniProt O76074)", "assay": "Inhibition of full length human recombinant N-terminal GST-tagged PDE5A1 expressed in baculovirus infected sf9 cells using cGMP as substrate after 30 mins by fluorescence assay"}, "[17]": {"biological_target": "cGMP-inhibited 3',5'-cyclic phosphodiesterase 3A (Homo sapiens, UniProt Q14432)", "sequence (Q14432 whole entry)": "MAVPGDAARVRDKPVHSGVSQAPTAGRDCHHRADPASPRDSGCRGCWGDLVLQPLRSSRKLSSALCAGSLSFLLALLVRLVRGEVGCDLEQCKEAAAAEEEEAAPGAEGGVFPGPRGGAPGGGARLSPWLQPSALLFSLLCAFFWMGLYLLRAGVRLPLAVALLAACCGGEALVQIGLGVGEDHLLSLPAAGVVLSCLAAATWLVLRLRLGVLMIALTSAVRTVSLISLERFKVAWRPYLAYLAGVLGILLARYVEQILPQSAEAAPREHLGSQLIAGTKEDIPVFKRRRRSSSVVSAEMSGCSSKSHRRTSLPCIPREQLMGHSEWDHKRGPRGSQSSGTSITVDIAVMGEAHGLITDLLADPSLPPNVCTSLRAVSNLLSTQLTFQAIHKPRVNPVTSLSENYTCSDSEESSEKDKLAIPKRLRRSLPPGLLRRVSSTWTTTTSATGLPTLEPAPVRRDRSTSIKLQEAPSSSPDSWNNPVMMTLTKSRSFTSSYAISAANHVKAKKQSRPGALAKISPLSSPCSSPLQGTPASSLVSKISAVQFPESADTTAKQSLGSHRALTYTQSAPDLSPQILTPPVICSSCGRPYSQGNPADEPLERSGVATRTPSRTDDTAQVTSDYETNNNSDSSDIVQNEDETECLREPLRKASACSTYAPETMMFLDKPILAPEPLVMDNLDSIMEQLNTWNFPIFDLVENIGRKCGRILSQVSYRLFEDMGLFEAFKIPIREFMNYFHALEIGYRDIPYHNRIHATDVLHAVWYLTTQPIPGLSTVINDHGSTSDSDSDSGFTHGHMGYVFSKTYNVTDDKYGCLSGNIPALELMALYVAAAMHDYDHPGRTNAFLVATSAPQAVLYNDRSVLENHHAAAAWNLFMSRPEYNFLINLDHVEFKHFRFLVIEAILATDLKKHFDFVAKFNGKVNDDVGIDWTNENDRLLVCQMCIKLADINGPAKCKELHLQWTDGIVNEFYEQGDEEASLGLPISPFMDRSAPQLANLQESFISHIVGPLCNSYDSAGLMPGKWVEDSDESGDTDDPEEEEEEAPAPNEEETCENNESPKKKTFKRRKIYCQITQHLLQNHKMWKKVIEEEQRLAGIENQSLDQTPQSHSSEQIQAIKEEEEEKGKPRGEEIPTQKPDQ", "assay": "Inhibition of PDE3A (unknown origin) using FAM-cGMP as substrate by fluorescence assay"}, "[18]": {"assay": "Inhibition of class-1 HDAC in human SH-SY5Y cells assessed as induction of AcH3K9 level at 160 nM after 2 hrs by AlphaLISA assay", "assay_type": "cell-based", "details": "0.16 µM"}, "[19]": {"assay": "cells", "details": "Homo sapiens, SH-SY5Y, 2 h, read-out: FC", "remark": "listed apart in the source"}, "[20]": {"biological_target": "CYP2C19 (Homo sapiens, UniProt P33261)", "sequence (P33261 whole entry)": "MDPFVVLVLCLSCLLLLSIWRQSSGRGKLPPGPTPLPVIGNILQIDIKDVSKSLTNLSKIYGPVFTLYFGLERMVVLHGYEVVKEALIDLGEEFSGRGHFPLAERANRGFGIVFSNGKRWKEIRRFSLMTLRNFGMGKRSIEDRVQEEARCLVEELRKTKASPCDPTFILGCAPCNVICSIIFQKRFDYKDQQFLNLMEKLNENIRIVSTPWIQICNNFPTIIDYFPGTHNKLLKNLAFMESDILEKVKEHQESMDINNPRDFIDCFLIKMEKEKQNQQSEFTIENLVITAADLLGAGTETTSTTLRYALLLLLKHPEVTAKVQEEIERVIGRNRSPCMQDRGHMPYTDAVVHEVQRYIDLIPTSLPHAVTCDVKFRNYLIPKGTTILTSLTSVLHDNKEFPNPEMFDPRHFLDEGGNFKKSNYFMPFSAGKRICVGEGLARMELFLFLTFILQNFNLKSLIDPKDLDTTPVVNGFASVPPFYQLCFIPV", "assay": "Inhibition of CYP2C19 in human liver microsomes at 10 uM after 10 mins in presence of NADPH by LC-MS/MS analysis relative to control", "assay_type": "ADME"}, "[21]": {"biological_target": "T1, Histone deacetylase 1", "assay": "Inhibition of full length human recombinant C-terminal FLAG/His-tagged HDAC1 expressed in baculovirus infected sf9 cells assessed residence time preincubated fopr 2 hrs followed by dilution and subsequent fluorogenic HDAC substrate 3 addition measured at 2 mins time interval by fluorescence based jump dilution assay"}, "[22]": {"assay": "Half life in human liver microsomes at 1 uM preincubated for 10 mins followed by NADPH addition measured up to 60 mins by LC-MS/MS analysis", "assay_type": "ADME, microsome"}, "[23]": {"assay": "Effective permeability of the compound at 50 uM after 18 hrs by UV spectroscopy based PAMPA", "assay_type": "ADME", "details": "read-out: Peff"}}, "data": [{"smiles": "CCCc1nn(C)c2c(=O)[nH]c(-c3cc(Cc4ccc(C(=O)NO)s4)ccc3OCC)nc12", "values": [{"measurement": "IC50", "setting": "[1]", "result": 841, "unit": "nM"}, {"measurement": "inhibition", "setting": "[2]", "result": 55, "unit": "%"}, {"measurement": "IC50", "setting": "[3]", "result": 345, "unit": "nM"}, {"measurement": "fold induction at 0.1 µM", "setting": "[4]", "result": 1.8}, {"measurement": "IC50", "setting": "[5]", "result": 15, "unit": "nM"}, {"measurement": "Activity", "setting": "[6]", "result": 68, "unit": "%"}, {"measurement": "IC50", "setting": "[7]", "result": "> 10", "unit": "µM"}, {"measurement": "IC50", "setting": "[8]", "result": 1.4, "unit": "nM"}, {"measurement": "fold induction at 0.5 µM", "setting": "[9]", "result": 8.2}, {"measurement": "CC50 at 72 h", "setting": "[10]", "result": 6.81, "unit": "µM"}, {"measurement": "Activity", "setting": "[11]", "result": 48, "unit": "%"}, {"measurement": "inhibition at 10 min, 10 µM", "setting": "[12]", "result": "< 50", "unit": "%"}, {"measurement": "half-life at 1 µM", "setting": "[13]", "result": 5.2, "unit": "min"}, {"measurement": "inhibition at 10 min, 10 µM", "setting": "[14]", "result": "< 50", "unit": "%"}, {"measurement": "inhibition at 10 min, 10 µM", "setting": "[15]", "result": "< 50", "unit": "%"}, {"measurement": "IC50", "setting": "[16]", "result": 11, "unit": "nM"}, {"measurement": "IC50", "setting": "[17]", "result": 3.2, "unit": "µM"}, {"measurement": "inhibition (INH)", "setting": "[18]", "result": "Active"}, {"measurement": "fold induction at 1 µM", "setting": "[19]", "result": 12.1}, {"measurement": "inhibition at 10 min, 10 µM", "setting": "[20]", "result": "< 50", "unit": "%"}, {"measurement": "residence time", "setting": "[21]", "result": 15.5, "unit": "min"}, {"measurement": "half-life at 1 µM", "setting": "[22]", "result": 32.7, "unit": "min"}, {"measurement": "Papp at 18 h, 50 µM", "setting": "[23]", "result": 2.91, "unit": "×10⁻⁶ cm/s"}]}]}
